{"source": "ChEMBL document CHEMBL4177609", "about": "“Identification of pyrrolo[2,3-d]pyrimidines as potent HCK and FLT3-ITD dual inhibitors” (Bioorg Med Chem Lett, 2017)", "key": {"[1]": {"target": "Receptor-type tyrosine-protein kinase FLT3 (Homo sapiens, UniProt P36888, ITD)", "sequence (P36888 whole entry, looked up, stated change not applied, the tested form may be a part)": "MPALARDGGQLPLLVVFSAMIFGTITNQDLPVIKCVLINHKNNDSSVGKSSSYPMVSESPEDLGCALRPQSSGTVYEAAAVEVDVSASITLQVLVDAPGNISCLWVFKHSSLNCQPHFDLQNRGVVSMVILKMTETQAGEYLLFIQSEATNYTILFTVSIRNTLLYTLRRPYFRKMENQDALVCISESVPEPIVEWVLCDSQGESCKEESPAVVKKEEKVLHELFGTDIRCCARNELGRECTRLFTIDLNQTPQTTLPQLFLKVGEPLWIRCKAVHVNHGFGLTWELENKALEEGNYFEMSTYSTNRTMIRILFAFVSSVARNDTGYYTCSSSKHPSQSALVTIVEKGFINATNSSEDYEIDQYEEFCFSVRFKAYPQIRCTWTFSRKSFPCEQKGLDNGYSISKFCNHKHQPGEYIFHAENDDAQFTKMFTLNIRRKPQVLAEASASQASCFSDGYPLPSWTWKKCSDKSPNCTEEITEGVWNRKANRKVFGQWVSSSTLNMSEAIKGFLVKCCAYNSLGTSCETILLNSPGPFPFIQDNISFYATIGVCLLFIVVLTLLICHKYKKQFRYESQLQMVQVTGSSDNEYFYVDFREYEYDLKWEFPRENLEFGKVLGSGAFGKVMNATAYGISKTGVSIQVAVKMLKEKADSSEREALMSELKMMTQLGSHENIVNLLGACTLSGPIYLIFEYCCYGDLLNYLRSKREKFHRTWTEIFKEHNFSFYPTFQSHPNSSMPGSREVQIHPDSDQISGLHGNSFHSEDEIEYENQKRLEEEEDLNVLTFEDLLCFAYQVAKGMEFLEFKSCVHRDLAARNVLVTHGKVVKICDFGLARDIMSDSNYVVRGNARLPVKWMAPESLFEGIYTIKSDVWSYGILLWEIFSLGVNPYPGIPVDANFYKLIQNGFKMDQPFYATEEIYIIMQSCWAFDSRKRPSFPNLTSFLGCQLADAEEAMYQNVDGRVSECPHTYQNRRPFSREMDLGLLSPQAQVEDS", "experiment": "Inhibition of recombinant human C-terminal FLT3 ITD mutant (571 to 993 residues) after 90 mins by mobility shift assay"}, "[2]": {"target": "Tyrosine-protein kinase HCK (Homo sapiens, UniProt P08631)", "sequence (P08631 whole entry)": "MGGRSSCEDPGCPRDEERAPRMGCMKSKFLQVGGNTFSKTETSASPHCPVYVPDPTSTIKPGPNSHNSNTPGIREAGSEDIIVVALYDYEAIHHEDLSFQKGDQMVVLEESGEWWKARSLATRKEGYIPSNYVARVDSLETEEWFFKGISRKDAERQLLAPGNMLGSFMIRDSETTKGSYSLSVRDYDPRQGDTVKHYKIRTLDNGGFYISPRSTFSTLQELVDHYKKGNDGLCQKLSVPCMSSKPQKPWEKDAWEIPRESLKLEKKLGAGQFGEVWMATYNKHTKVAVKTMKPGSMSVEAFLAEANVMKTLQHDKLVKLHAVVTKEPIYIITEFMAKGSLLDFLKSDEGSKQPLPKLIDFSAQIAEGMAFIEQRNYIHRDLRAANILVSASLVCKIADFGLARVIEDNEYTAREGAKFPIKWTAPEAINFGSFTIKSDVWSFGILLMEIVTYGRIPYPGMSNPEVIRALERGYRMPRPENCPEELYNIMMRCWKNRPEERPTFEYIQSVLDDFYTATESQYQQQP", "description": "Inhibition of recombinant human HCK SH3-SH2-KD (75 to 526 residues) after 20 mins by mobility shift assay"}, "[3]": {"test_system": "MV4-11", "experiment": "Growth inhibition of human MV4-11 cells after 3 days by Alamar blue assay", "type": "functional", "conditions": "MV4-11, 72 h"}}, "data": [{"smiles": "Nc1ncnc2c1c(-c1ccc(Oc3ccccc3)cc1)cn2[C@H]1CC[C@@H](N[C@@H](CO)C(=O)O)CC1", "values": [{"measurement": "IC50", "setting": "[1]", "result": 13, "unit": "nM"}, {"measurement": "IC50", "setting": "[2]", "result": 40, "unit": "nM"}]}, {"smiles": "CC(C)C[C@@H](N[C@H]1CC[C@@H](n2cc(-c3ccc(Oc4ccccc4)cc3)c3c(N)ncnc32)CC1)C(=O)O", "values": [{"measurement": "IC50", "setting": "[1]", "result": 35, "unit": "nM"}, {"measurement": "IC50", "setting": "[2]", "result": 137, "unit": "nM"}]}, {"smiles": "Nc1ncnc2c1c(-c1ccc(Oc3ccccc3)cc1)cn2[C@H]1CC[C@@H](N[C@H]2CCOC2=O)CC1", "values": [{"measurement": "IC50", "setting": "[1]", "result": 27, "unit": "nM"}, {"measurement": "IC50", "setting": "[2]", "result": 5.4, "unit": "nM"}, {"measurement": "GI50", "setting": "[3]", "result": 29, "unit": "nM"}]}, {"smiles": "Nc1ncnc2c1c(-c1ccc(Oc3ccccc3)cc1)cn2[C@H]1CC[C@H](N[C@H]2CCOC2=O)CC1", "values": [{"measurement": "IC50", "setting": "[1]", "result": 25, "unit": "nM"}, {"measurement": "IC50", "setting": "[2]", "result": 28, "unit": "nM"}]}, {"smiles": "Nc1ncnc2c1c(-c1ccc(Oc3ccccc3)cc1)cn2[C@H]1CC[C@H](N[C@@H](Cc2ccccc2)C(=O)O)CC1", "values": [{"measurement": "IC50", "setting": "[1]", "result": 24, "unit": "nM"}, {"measurement": "IC50", "setting": "[2]", "result": 7.5, "unit": "nM"}]}, {"smiles": "Nc1ncnc2c1c(-c1ccc(Oc3ccccc3)cc1)cn2[C@H]1CC[C@H](N2CCC[C@@H]2C(=O)O)CC1", "values": [{"measurement": "IC50", "setting": "[1]", "result": 126, "unit": "nM"}, {"measurement": "IC50", "setting": "[2]", "result": 200, "unit": "nM"}]}, {"smiles": "Nc1ncnc2c1c(-c1ccc(Oc3ccccc3)cc1)cn2[C@H]1CC[C@@H](NCC(=O)O)CC1", "values": [{"measurement": "IC50", "setting": "[1]", "result": 32, "unit": "nM"}, {"measurement": "IC50", "setting": "[2]", "result": 12, "unit": "nM"}]}, {"smiles": "C[C@H](N[C@H]1CC[C@H](n2cc(-c3ccc(Oc4ccccc4)cc3)c3c(N)ncnc32)CC1)C(=O)O", "values": [{"measurement": "IC50", "setting": "[1]", "result": 39, "unit": "nM"}, {"measurement": "IC50", "setting": "[2]", "result": 6.9, "unit": "nM"}]}, {"smiles": "Nc1ncnc2c1c(-c1ccc(Oc3ccccc3)cc1)cn2[C@H]1CC[C@H](N[C@@H](CO)C(=O)O)CC1", "values": [{"measurement": "IC50", "setting": "[1]", "result": 18, "unit": "nM"}, {"measurement": "IC50", "setting": "[2]", "result": 1.8, "unit": "nM"}, {"measurement": "GI50", "setting": "[3]", "result": "> 100", "unit": "nM"}]}, {"smiles": "Nc1ncnc2c1c(-c1ccc(Oc3ccccc3)cc1)cn2[C@H]1CC[C@@H](N2CCC[C@H]2C(=O)O)CC1", "values": [{"measurement": "IC50", "setting": "[1]", "result": 20, "unit": "nM"}, {"measurement": "IC50", "setting": "[2]", "result": 79, "unit": "nM"}]}, {"smiles": "Nc1ncnc2c1c(-c1ccc(Oc3ccccc3)cc1)cn2[C@H]1CC[C@H](N[C@@H](Cc2ccc(O)cc2)C(=O)O)CC1", "values": [{"measurement": "IC50", "setting": "[1]", "result": 28, "unit": "nM"}, {"measurement": "IC50", "setting": "[2]", "result": 7.4, "unit": "nM"}]}, {"smiles": "CC(C)CCN[C@H]1CC[C@H](n2cc(-c3ccc(Oc4ccccc4)cc3)c3c(N)ncnc32)CC1", "values": [{"measurement": "IC50", "setting": "[1]", "result": 56, "unit": "nM"}, {"measurement": "IC50", "setting": "[2]", "result": 226, "unit": "nM"}]}, {"smiles": "CC(C)CCN[C@H]1CC[C@@H](n2cc(-c3ccc(Oc4ccccc4)cc3)c3c(N)ncnc32)CC1", "values": [{"measurement": "IC50", "setting": "[1]", "result": 44, "unit": "nM"}, {"measurement": "IC50", "setting": "[2]", "result": 119, "unit": "nM"}]}, {"smiles": "Nc1ncnc2c1c(-c1ccc(Oc3ccccc3)cc1)cn2[C@H]1CC[C@@H](N[C@H](CO)C(=O)O)CC1", "values": [{"measurement": "IC50", "setting": "[1]", "result": 12, "unit": "nM"}, {"measurement": "IC50", "setting": "[2]", "result": 23, "unit": "nM"}]}, {"smiles": "Nc1ncnc2c1c(-c1ccc(Oc3ccccc3)cc1)cn2[C@H]1CC[C@H](NCC(=O)O)CC1", "values": [{"measurement": "IC50", "setting": "[1]", "result": 28, "unit": "nM"}, {"measurement": "IC50", "setting": "[2]", "result": 3.7, "unit": "nM"}, {"measurement": "GI50", "setting": "[3]", "result": 98, "unit": "nM"}]}, {"smiles": "CC(C)C[C@@H](N[C@H]1CC[C@H](n2cc(-c3ccc(Oc4ccccc4)cc3)c3c(N)ncnc32)CC1)C(=O)O", "values": [{"measurement": "IC50", "setting": "[1]", "result": 53, "unit": "nM"}, {"measurement": "IC50", "setting": "[2]", "result": 27, "unit": "nM"}]}, {"smiles": "Nc1ncnc2c1c(-c1ccc(Oc3ccccc3)cc1)cn2[C@H]1CC[C@H](N2CCC[C@H]2C(=O)O)CC1", "values": [{"measurement": "IC50", "setting": "[1]", "result": 26, "unit": "nM"}, {"measurement": "IC50", "setting": "[2]", "result": 52, "unit": "nM"}]}, {"smiles": "Nc1ncnc2c1c(-c1ccc(Oc3ccccc3)cc1)cn2[C@H]1CC[C@@H](N[C@@H](Cc2ccccc2)C(=O)O)CC1", "values": [{"measurement": "IC50", "setting": "[1]", "result": 3.1, "unit": "nM"}, {"measurement": "IC50", "setting": "[2]", "result": 74, "unit": "nM"}]}, {"smiles": "C[C@@H](N[C@H]1CC[C@H](n2cc(-c3ccc(Oc4ccccc4)cc3)c3c(N)ncnc32)CC1)C(=O)O", "values": [{"measurement": "IC50", "setting": "[1]", "result": 39, "unit": "nM"}, {"measurement": "IC50", "setting": "[2]", "result": 36, "unit": "nM"}]}, {"smiles": "Nc1ncnc2c1c(-c1ccc(Oc3ccccc3)cc1)cn2[C@H]1CC[C@H](NCCC(=O)O)CC1", "values": [{"measurement": "IC50", "setting": "[1]", "result": 33, "unit": "nM"}, {"measurement": "IC50", "setting": "[2]", "result": 15, "unit": "nM"}]}, {"smiles": "C[C@H](N[C@H]1CC[C@@H](n2cc(-c3ccc(Oc4ccccc4)cc3)c3c(N)ncnc32)CC1)C(=O)O", "values": [{"measurement": "IC50", "setting": "[1]", "result": 20, "unit": "nM"}, {"measurement": "IC50", "setting": "[2]", "result": 73, "unit": "nM"}]}, {"smiles": "Nc1ncnc2c1c(-c1ccc(Oc3ccccc3)cc1)cn2[C@H]1CC[C@H](N[C@H](Cc2ccc(O)cc2)C(=O)O)CC1", "values": [{"measurement": "IC50", "setting": "[1]", "result": 11, "unit": "nM"}, {"measurement": "IC50", "setting": "[2]", "result": 15, "unit": "nM"}]}, {"smiles": "CC(C)C[C@H](N[C@H]1CC[C@@H](n2cc(-c3ccc(Oc4ccccc4)cc3)c3c(N)ncnc32)CC1)C(=O)O", "values": [{"measurement": "IC50", "setting": "[1]", "result": 23, "unit": "nM"}, {"measurement": "IC50", "setting": "[2]", "result": 105, "unit": "nM"}]}, {"smiles": "CN1CCN([C@H]2CC[C@H](n3cc(-c4ccc(Oc5ccccc5)cc4)c4c(N)ncnc43)CC2)CC1", "values": [{"measurement": "IC50", "setting": "[2]", "result": 0.4, "unit": "nM"}, {"measurement": "GI50", "setting": "[3]", "result": 40, "unit": "nM"}]}, {"smiles": "C[C@@H](N[C@H]1CC[C@@H](n2cc(-c3ccc(Oc4ccccc4)cc3)c3c(N)ncnc32)CC1)C(=O)O", "values": [{"measurement": "IC50", "setting": "[1]", "result": 23, "unit": "nM"}, {"measurement": "IC50", "setting": "[2]", "result": 36, "unit": "nM"}]}, {"smiles": "Nc1ncnc2c1c(-c1ccc(Oc3ccccc3)cc1)cn2[C@H]1CC[C@@H](N2CCC[C@@H]2C(=O)O)CC1", "values": [{"measurement": "IC50", "setting": "[1]", "result": 16, "unit": "nM"}, {"measurement": "IC50", "setting": "[2]", "result": 65, "unit": "nM"}]}, {"smiles": "Nc1ncnc2c1c(-c1ccc(Oc3ccccc3)cc1)cn2[C@H]1CC[C@@H](N[C@H](Cc2ccccc2)C(=O)O)CC1", "values": [{"measurement": "IC50", "setting": "[1]", "result": 2.6, "unit": "nM"}, {"measurement": "IC50", "setting": "[2]", "result": 18, "unit": "nM"}, {"measurement": "GI50", "setting": "[3]", "result": 26, "unit": "nM"}]}, {"smiles": "Nc1ncnc2c1c(-c1ccc(Oc3ccccc3)cc1)cn2[C@H]1CC[C@@H](N[C@@H](Cc2ccc(O)cc2)C(=O)O)CC1", "values": [{"measurement": "IC50", "setting": "[1]", "result": 5, "unit": "nM"}, {"measurement": "IC50", "setting": "[2]", "result": 39, "unit": "nM"}]}, {"smiles": "Nc1ncnc2c1c(-c1ccc(Oc3ccccc3)cc1)cn2[C@H]1CC[C@@H](N[C@H](Cc2ccc(O)cc2)C(=O)O)CC1", "values": [{"measurement": "IC50", "setting": "[1]", "result": 5, "unit": "nM"}, {"measurement": "IC50", "setting": "[2]", "result": 13, "unit": "nM"}, {"measurement": "GI50", "setting": "[3]", "result": 18, "unit": "nM"}]}, {"smiles": "CC(C)C[C@H](N[C@H]1CC[C@H](n2cc(-c3ccc(Oc4ccccc4)cc3)c3c(N)ncnc32)CC1)C(=O)O", "values": [{"measurement": "IC50", "setting": "[1]", "result": 14, "unit": "nM"}, {"measurement": "IC50", "setting": "[2]", "result": 4.4, "unit": "nM"}, {"measurement": "GI50", "setting": "[3]", "result": 21, "unit": "nM"}]}, {"smiles": "Nc1ncnc2c1c(-c1ccc(Oc3ccccc3)cc1)cn2[C@H]1CC[C@H](N[C@H](Cc2ccccc2)C(=O)O)CC1", "values": [{"measurement": "IC50", "setting": "[1]", "result": 27, "unit": "nM"}, {"measurement": "IC50", "setting": "[2]", "result": 24, "unit": "nM"}]}, {"smiles": "Nc1ncnc2c1c(-c1ccc(Oc3ccccc3)cc1)cn2[C@H]1CC[C@H](N[C@H](CO)C(=O)O)CC1", "values": [{"measurement": "IC50", "setting": "[1]", "result": 17, "unit": "nM"}, {"measurement": "IC50", "setting": "[2]", "result": 6.3, "unit": "nM"}]}]}
